The structures appear in SMILES notation. Where only a bound is given, the exact number is not on record here.

For one experiment, the target named is T1, CDK2/Cyclin E1 (Homo sapiens, UniProt P24941).
T1 construct: purchased 14-475
Briefly: Caliper Assay (LabChip EZ Reader mobility shift assay), inhibition of CDK2/Cyclin E1 activity. Particulars: 2.5 nM CDK2/Cyclin E1(14-475), 100 μM ATP, 30 min preincubation; read-out: Caliper Assay (CDK2/CCNE1): IC50. Type of experiment: biochemical. The procedure: Inhibition of CDK2/Cyclin E1 activity in the presence of compounds of the present disclosure was evaluated using a Caliper LabChip® EZ Reader mobility shift assay. In the assay, activated CDK2/Cyclin E1 catalyzes the phosphorylation of a fluorescently tagged peptide 5-FAM-QSPKKG-CONH2 (PerkinElmer, FL Peptide 18) which induces a difference in capillary electrophoresis mobility. The peptide substrate and product were measured, and the conversion ratio was used to determine the inhibition (as % activity and IC50 values) of CDK2/Cyclin E1. Reactions contained 50 mM HEPES pH 7.5, 10 mM MgCl2, 1 mM EDTA, 2 mM DTT, 0.01% Brij35, 0.5 mg/mL BSA, 0.1% DMSO, 2.5 nM CDK2/Cyclin E1(14-475), 100 μM ATP, and 1.5 μM fluorescent peptide substrate.
Dose titrations of inhibitors in 100% DMSO were combined with 3.25 nM CDK2/Cyclin E1(14-475) and 130 μM of ATP in reaction buffer. The mixtures were incubated for 30 minutes before the addition of fluorescent peptide substrate to initiate the kinase reaction. The final conditions were 2.5 nM CDK2/Cyclin E1(14-475), 100 μM ATP, and 1.5 μM fluorescent peptide. The reactions were stopped after 100 minutes with the addition of EDTA (6 mM final EDTA concentration). The stopped reactions were analyzed on a Caliper LabChip© EZ Reader II. The conversion ratios were normalized to yield % activity, plotted against compound concentration, and fit to a four-parameter equation to determine the IC50 for each compound.

The next experiment has as its system Kuramochi cells. Briefly: IncuCyte Kuramochi Assay (cell proliferation). The experiment is classed as cell-based. Particulars: 72 h, Kuramochi cells labeled with mApple-H2B, cell count, read-out: IncuCyte - Kuramochi RB-WT: IC50. As for the experimental part:
IncuCyte® assay was used to measure the effect of disclosed compounds on cell proliferation. Fluorescent microscopy images of cells were taken immediately after compound treatment and 72 hours later. Image analysis software was used to obtain cell counts as a function of compound concentration. Kuramochi cells labeled with mApple-H2B were seeded on 384-well assay-ready plates. Plates were placed in an IncuCyte® (Sartorius) and scanned at 0 and 72 hours. IncuCyte® software was used to count the number of fluorescent nuclei in each well. The fold change in cell count from 0 to 72 hours in wells treated with increasing compounds concentrations (10 pts, ½ log dilution, 20 μM top concentration) was normalized to DMSO control wells. The normalized cell counts were fit with dose response curves and a […] was calculated.

`O=C(c1cncs1)N1CC(c2nnc(C(F)(F)c3ccc(Cl)c(Cl)c3)o2)C2(C1)CN(C(=O)N1CCC1)C2` (centres unmarked) [I-186, Azetidin-1-yl(8-(5-((3,4-dichlorophenyl)difluoromethyl)-1,3,4-oxadiazol-2-yl)-6-(thiazole-5-carbonyl)-2,6-diazaspiro[3.4]octan-2-yl)methanone]: the IC50 at CDK2/Cyclin E1 and in the experiment with Kuramochi cells was more than 10 µM throughout.

For the compound `C[C@H](NC(=O)c1coc(C2CN(C(=O)c3cnn(Cc4ccccc4)c3)CC23CN(C(=O)[C@H]2CC2(C)C)C3)n1)C1CCCCC1` (some centres unmarked) [I-89], the results for the IC50 on CDK2/Cyclin E1 and in the experiment on Kuramochi cells were 0.1 to 1 µM and 5 to 10 µM, respectively.

As for `O=C(c1cncs1)N1CC(c2nnc(Cc3ccc(Cl)c(Cl)c3)o2)C2(C1)CN(c1nccc(C(F)(F)F)n1)C2` (centres unmarked) [I-99], the IC50 on CDK2/Cyclin E1 and with Kuramochi cells was more than 10 µM each time.

As to `O=C(C#CCO)N1CC(c2nnc(C(F)(F)c3ccc(Cl)c(Cl)c3)o2)C2(C1)CN(C(=O)[C@H]1CC1(F)F)C2` (some centres unmarked) [I-160], the IC50 on CDK2/Cyclin E1 and in the experiment with Kuramochi cells was more than 10 µM in each case.

Regarding `CC1(C)C[C@@H]1C(=O)N1CC2(C1)CN(c1ncnc3ncsc13)CC2c1nnc(Cc2cccc(C3CCOCC3)n2)o1` (stereo partly drawn) [I-105, ((S)-2,2-dimethylcyclopropyl)(8-(5-((6-(tetrahydro-2H-pyran-4-yl)pyridin-2-yl)methyl)-1,3,4-oxadiazol-2-yl)-6-(thiazolo[4,5-d]pyrimidin-7-yl)-2,6-diazaspiro[3.4]octan-2-yl)methanone], the IC50 at CDK2/Cyclin E1 and in the experiment on Kuramochi cells was more than 10 µM throughout.

`CC1(C)C[C@@H]1C(=O)N1CC2(C1)CN(c1cccc3ncsc13)CC2c1nnc(C(F)(F)c2ccc(Cl)c(Cl)c2)o1` (stereo partly drawn) [I-98, (6-(benzo[d]thiazol-7-yl)-8-(5-((3,4-dichlorophenyl)difluoromethyl)-1,3,4-oxadiazol-2-yl)-2,6-diazaspiro[3.4]octan-2-yl)((S)-2,2-dimethylcyclopropyl)methanone]: the IC50 on CDK2/Cyclin E1 and in the experiment with Kuramochi cells was more than 10 µM in each case.

As to `CC1(C)C[C@@H]1C(=O)N1CC2(CN(C(=O)c3cncs3)CC2c2nnc(Cc3ccc(Cl)cc3)o2)C1` (some centres unmarked) [I-30], the IC50 is 1 to 10 µM at CDK2/Cyclin E1 and more than 10 µM with Kuramochi cells.

For `O=C(c1cncs1)N1CC(c2nnc(Cc3ccc(Cl)c(Cl)c3)o2)C2(C1)CN(c1ccccn1)C2` (centres unmarked) [I-197, (8-(5-(3,4-dichlorobenzyl)-1,3,4-oxadiazol-2-yl)-2-(pyridin-2-yl)-2,6-diazaspiro[3.4]octan-6-yl)(thiazol-5-yl)methanone], the IC50 on CDK2/Cyclin E1 and with Kuramochi cells was more than 10 µM each time.

For the compound `CC1(C)C[C@@H]1C(=O)N1CC2(C1)CN(c1cccc3ncsc13)CC2c1nnc(Cc2ccc(Cl)c(Cl)c2)o1` (stereo partly drawn) [I-101, (6-(benzo[d]thiazol-7-yl)-8-(5-(3,4-dichlorobenzyl)-1,3,4-oxadiazol-2-yl)-2,6-diazaspiro[3.4]octan-2-yl)((S)-2,2-dimethylcyclopropyl)methanone], the IC50 at CDK2/Cyclin E1 and in the experiment with Kuramochi cells was more than 10 µM throughout.

As for `COc1ccc(C(F)(F)c2nnc(C3CN(C(=O)c4cncs4)CC34CN(C(=O)[C@H]3CC3(C)C)C4)o2)cc1` (some centres unmarked) [I-68], the IC50 on CDK2/Cyclin E1 was 0.1 to 1 µM; in the experiment with Kuramochi cells, more than 10 µM.

For `O=C(c1cncs1)N1CC(c2nnc(C(F)(F)c3ccc(Cl)c(Cl)c3)o2)C2(C1)CN(c1cccnn1)C2` (centres unmarked) [I-187, (8-(5-((3,4-dichlorophenyl)difluoromethyl)-1,3,4-oxadiazol-2-yl)-2-(pyridazin-3-yl)-2,6-diazaspiro[3.4]octan-6-yl)(thiazol-5-yl)methanone], the IC50 on CDK2/Cyclin E1 and in the experiment with Kuramochi cells was more than 10 µM each time.

Take `Cc1cc(C)n(C(C)c2nc(C3CN(C(=O)c4cnn(Cc5ccccc5)c4)CC34CN(C(=O)[C@H]3CC3(C)C)C4)no2)n1` (single isomer, unassigned) [I-2]: the IC50 in the experiment with Kuramochi cells was 5 to 10 µM.
